# Measured values from ChEMBL document CHEMBL5291721, “A preclinical secondary pharmacology resource illuminates target-adverse drug reaction associations of marketed drugs” (Nat Commun, 2023).
# Experiments:
# [1] = target: Gamma-aminobutyric acid receptor subunit alpha-1/alpha-2/beta-2/gamma-2 (Homo sapiens, UniProt P14867+P18507+P47869+P47870); assay type: protein-complex assay
# Progesterone receptor = target: T1, Progesterone receptor (Homo sapiens, UniProt P06401)
# T1 sequence (P06401 whole entry): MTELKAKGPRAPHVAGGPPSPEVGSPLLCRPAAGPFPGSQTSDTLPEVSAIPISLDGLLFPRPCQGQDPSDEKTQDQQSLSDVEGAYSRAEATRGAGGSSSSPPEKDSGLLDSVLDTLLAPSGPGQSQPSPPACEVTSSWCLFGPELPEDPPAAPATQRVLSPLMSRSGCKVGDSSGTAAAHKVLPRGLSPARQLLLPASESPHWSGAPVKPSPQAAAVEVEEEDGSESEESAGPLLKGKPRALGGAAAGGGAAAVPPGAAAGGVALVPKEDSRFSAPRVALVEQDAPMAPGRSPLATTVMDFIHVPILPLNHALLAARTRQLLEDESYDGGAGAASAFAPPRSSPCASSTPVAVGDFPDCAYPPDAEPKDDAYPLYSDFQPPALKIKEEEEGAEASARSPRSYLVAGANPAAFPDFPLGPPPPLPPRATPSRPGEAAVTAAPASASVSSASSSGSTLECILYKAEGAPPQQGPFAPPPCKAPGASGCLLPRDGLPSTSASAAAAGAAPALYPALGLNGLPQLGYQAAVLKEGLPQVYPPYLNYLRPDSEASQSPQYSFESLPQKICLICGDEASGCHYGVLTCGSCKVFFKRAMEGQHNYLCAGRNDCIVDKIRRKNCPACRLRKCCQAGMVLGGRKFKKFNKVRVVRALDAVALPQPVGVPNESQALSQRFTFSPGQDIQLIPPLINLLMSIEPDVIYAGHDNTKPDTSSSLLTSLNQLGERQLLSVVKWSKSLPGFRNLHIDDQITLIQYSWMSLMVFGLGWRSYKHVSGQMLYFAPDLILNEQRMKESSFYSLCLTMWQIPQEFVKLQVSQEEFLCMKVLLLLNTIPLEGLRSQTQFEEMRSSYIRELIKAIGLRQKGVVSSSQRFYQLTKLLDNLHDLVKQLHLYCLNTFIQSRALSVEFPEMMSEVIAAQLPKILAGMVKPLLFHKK
# D(1A) dopamine receptor = D(1A) dopamine receptor (Homo sapiens, UniProt P21728)
# [2] = target: T2, Alpha-1A adrenergic receptor (Homo sapiens, UniProt P35348)
# T2 sequence (P35348 whole entry): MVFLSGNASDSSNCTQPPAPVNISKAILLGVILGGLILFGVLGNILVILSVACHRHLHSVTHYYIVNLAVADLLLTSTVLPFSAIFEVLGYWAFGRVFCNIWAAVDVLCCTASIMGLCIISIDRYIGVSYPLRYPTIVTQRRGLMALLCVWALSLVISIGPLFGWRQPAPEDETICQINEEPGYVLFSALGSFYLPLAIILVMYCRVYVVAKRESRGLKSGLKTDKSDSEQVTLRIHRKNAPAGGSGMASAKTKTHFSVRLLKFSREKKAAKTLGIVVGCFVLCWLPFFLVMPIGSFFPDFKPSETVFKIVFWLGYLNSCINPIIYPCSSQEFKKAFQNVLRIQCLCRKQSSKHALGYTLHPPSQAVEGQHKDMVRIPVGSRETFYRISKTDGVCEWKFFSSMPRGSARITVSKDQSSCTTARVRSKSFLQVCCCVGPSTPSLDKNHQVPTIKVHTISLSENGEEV
# [3] = target: T3, Corticotropin-releasing factor receptor 1 (Homo sapiens, UniProt P34998)
# T3 sequence (P34998 whole entry): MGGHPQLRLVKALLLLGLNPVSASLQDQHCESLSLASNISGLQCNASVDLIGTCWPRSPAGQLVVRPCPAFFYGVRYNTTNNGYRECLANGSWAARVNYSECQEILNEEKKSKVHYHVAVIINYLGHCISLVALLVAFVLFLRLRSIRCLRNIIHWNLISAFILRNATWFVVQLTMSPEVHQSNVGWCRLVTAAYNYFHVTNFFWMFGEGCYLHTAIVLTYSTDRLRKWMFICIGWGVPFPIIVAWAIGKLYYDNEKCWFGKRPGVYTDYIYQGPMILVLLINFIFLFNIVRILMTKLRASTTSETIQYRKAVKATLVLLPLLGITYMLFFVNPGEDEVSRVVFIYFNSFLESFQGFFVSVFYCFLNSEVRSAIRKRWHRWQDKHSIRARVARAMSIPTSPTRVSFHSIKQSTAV
# Estrogen receptor = target: T4, Estrogen receptor (Homo sapiens, UniProt P03372)
# T4 sequence (P03372 whole entry): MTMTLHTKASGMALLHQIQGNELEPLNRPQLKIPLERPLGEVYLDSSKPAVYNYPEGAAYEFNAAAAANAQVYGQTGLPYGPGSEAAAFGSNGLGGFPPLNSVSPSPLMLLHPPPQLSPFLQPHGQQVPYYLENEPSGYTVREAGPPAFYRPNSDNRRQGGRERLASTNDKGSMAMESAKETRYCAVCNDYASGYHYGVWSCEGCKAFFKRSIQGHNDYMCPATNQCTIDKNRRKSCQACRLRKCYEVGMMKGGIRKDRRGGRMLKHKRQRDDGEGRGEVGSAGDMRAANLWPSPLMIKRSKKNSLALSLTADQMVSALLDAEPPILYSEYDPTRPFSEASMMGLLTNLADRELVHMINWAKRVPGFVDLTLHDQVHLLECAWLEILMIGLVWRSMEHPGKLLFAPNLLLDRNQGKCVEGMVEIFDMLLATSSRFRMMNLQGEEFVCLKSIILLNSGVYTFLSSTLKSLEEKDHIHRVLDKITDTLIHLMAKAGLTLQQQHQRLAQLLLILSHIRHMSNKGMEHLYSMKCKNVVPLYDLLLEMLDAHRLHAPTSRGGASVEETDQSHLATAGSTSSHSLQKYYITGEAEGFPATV
# D(4) dopamine receptor = target: T5, D(4) dopamine receptor (Homo sapiens, UniProt P21917)
# T5 sequence (P21917 whole entry): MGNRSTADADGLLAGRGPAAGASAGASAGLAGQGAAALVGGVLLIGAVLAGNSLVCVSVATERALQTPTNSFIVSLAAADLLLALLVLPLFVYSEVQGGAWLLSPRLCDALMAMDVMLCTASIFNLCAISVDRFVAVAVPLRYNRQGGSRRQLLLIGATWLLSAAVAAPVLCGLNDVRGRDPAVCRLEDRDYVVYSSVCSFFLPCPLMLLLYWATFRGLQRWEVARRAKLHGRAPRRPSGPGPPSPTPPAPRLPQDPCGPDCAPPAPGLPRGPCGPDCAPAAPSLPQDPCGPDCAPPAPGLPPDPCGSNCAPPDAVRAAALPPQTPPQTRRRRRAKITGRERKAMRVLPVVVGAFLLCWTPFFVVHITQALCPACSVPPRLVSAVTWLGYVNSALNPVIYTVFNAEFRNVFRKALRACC
# Note: assay procedure not described here.
# Gamma-aminobutyric acid receptor subunit alpha-1/alpha-2/beta-2/gamma-2, sequence (P14867 whole entry): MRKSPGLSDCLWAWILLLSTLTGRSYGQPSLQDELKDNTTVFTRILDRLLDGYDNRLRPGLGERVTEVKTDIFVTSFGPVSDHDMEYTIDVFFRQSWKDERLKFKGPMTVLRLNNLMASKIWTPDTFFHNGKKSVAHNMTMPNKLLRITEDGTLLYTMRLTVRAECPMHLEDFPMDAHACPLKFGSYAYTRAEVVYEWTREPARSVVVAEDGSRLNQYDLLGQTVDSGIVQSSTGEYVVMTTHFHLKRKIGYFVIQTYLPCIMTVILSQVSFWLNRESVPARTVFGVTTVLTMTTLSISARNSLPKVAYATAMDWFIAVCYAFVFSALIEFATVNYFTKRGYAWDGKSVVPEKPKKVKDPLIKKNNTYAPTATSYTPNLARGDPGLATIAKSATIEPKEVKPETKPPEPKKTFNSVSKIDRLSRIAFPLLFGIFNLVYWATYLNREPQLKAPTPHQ
# Gamma-aminobutyric acid receptor subunit alpha-1/alpha-2/beta-2/gamma-2, sequence (P47870 whole entry): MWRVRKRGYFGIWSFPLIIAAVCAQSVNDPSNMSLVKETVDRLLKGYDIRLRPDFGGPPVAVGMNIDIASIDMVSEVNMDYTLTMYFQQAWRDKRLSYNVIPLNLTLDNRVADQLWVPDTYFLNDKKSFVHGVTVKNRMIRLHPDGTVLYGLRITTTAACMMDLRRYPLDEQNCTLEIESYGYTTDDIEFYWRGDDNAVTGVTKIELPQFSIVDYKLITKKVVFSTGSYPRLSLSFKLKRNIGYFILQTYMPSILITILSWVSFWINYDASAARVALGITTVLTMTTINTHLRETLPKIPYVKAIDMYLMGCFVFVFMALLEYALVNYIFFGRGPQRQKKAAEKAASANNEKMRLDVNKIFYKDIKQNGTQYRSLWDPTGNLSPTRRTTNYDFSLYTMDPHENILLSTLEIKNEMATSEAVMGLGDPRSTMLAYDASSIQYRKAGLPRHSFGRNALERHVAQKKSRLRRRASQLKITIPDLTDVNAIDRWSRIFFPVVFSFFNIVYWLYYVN
# Gamma-aminobutyric acid receptor subunit alpha-1/alpha-2/beta-2/gamma-2, sequence (P18507 whole entry): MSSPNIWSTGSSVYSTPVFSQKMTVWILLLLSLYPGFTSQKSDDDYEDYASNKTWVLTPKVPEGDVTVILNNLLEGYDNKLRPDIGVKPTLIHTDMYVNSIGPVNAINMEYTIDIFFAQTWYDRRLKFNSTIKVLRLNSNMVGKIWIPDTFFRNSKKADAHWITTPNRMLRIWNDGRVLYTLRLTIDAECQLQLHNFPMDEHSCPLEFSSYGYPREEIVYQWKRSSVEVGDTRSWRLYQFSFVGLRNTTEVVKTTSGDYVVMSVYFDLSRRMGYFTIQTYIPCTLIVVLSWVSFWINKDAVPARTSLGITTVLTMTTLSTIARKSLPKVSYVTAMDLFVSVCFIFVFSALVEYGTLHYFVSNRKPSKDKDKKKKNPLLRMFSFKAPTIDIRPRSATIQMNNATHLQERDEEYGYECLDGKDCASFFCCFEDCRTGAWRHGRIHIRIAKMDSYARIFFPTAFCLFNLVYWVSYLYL
# Gamma-aminobutyric acid receptor subunit alpha-1/alpha-2/beta-2/gamma-2, sequence (P47869 whole entry): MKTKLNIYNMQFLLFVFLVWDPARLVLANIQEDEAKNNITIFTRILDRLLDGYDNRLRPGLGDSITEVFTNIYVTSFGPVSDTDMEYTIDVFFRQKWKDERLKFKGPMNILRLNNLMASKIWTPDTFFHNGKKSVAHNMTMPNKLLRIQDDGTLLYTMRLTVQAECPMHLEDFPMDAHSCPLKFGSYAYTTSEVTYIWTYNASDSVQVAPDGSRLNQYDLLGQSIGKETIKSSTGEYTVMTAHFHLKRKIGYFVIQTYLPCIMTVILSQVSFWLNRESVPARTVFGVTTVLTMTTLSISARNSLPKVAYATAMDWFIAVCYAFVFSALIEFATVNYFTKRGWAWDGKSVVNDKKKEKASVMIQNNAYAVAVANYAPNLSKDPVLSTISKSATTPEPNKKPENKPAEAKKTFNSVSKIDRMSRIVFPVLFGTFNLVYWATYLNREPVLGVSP
# D(1A) dopamine receptor, sequence (P21728 whole entry): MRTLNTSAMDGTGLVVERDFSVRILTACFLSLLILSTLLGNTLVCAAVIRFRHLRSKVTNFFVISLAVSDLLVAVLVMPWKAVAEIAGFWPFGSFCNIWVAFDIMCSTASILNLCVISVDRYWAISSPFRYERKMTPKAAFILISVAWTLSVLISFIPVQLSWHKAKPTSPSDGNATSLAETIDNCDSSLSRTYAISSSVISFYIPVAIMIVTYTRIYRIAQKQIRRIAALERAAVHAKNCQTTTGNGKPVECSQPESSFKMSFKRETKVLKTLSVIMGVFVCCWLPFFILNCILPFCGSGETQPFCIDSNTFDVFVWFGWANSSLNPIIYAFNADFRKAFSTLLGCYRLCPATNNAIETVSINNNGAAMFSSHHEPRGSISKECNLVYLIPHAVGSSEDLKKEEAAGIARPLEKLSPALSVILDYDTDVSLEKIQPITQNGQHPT
SMILES,AC50 [1] [µM],AC50 (Estrogen receptor) [µM],also measured
O=C(O)COc1ccc(C(=O)c2cccs2)c(Cl)c1Cl,> 10,–,–
C[C@]1(Cn2ccnn2)[C@H](C(=O)O)N2C(=O)C[C@H]2S1(=O)=O [TAZOBACTAM],> 30,–,–
COc1ccccc1Oc1c(NS(=O)(=O)c2ccc(C(C)(C)C)cc2)nc(-c2ncccn2)nc1OCCO [BOSENTAN],–,> 30,AC50 (Progesterone receptor): > 30 µM; AC50 (D(1A) dopamine receptor): > 10 µM; AC50 [2]: > 10 µM; AC50 [3]: > 30 µM
FC(F)(F)c1ccc(CNc2ccc(Cc3c[nH]c4ncc(Cl)cc34)cn2)cn1 [PEXIDARTINIB],> 3,–,–
O=C1CCc2cc(OCCCCc3nnnn3C3CCCCC3)ccc2N1 [CILOSTAZOL],–,> 30,AC50 (Progesterone receptor): > 30 µM; AC50 [2]: > 10 µM
[H]/N=C(\N/C(=N/[H])Nc1ccc(Cl)cc1)NC(C)C [PROGUANIL],> 30,–,–
C[C@H]1O[C@@H](n2cc(F)c(=O)[nH]c2=O)[C@H](O)[C@@H]1O [DOXIFLURIDINE],> 30,–,–
COc1ccc(CC2c3cc(OC)c(OC)cc3CC[N+]2(C)CCC(=O)OCCCCCOC(=O)CC[N+]2(C)CCc3cc(OC)c(OC)cc3C2Cc2ccc(OC)c(OC)c2)cc1OC (stereo not drawn),–,> 30,AC50 [2]: > 30 µM
N[C@@H](CS)C(=O)O [CYSTEINE],> 30,–,–
CC(=O)O[C@]1(C(C)=O)CC[C@H]2[C@@H]3C=C(C)C4=CC(=O)CC[C@@H]4[C@H]3CC[C@@]21C [NOMEGESTROL ACETATE],–,> 30,–
O=C1C(CC[S+]([O-])c2ccccc2)C(=O)N(c2ccccc2)N1c1ccccc1 (stereo not drawn) [SULFINPYRAZONE],–,> 10,AC50 [2]: > 10 µM
COc1c2ccoc2cc2oc(=O)ccc12 [BERGAPTEN],> 30,–,–
CN1CCCCC1CCN1c2ccccc2Sc2ccc([S+](C)[O-])cc21 (stereo not drawn) [MESORIDAZINE],> 30,–,–
CCN(CC)CCNC(=O)c1c(C)[nH]c(/C=C2\C(=O)Nc3ccc(F)cc32)c1C [SUNITINIB],–,–,AC50 (D(4) dopamine receptor): 0.108 µM
Cc1onc(-c2ccccc2)c1C(=O)N[C@@H]1C(=O)N2[C@@H]1SC(C)(C)[C@@H]2C(=O)O [OXACILLIN],> 30,–,–
CCCN(CCC)C(=O)Cc1c(-c2ccc(Cl)cc2)nc2ccc(Cl)cn12 [ALPIDEM],–,> 30,AC50 (D(1A) dopamine receptor): > 10 µM; AC50 [2]: > 30 µM; AC50 (D(4) dopamine receptor): > 10 µM
COc1cc2nccc(Oc3ccc(NC(=O)C4(C(=O)Nc5ccc(F)cc5)CC4)cc3)c2cc1OC [CABOZANTINIB],> 30,–,–
CC(CN1CC(=O)NC(=O)C1)N1CC(=O)NC(=O)C1 (stereo not drawn) [RAZOXANE],> 30,–,–
C[N+](C)(C)C[C@H](O)CC(=O)[O-] [LEVOCARNITINE],> 30,–,–

SMILES,AC50 [1] [µM],AC50 (Estrogen receptor) [µM],also measured
CC(C)(O)CNc1nc(Nc2ccnc(C(F)(F)F)c2)nc(-c2cccc(C(F)(F)F)n2)n1 [ENASIDENIB],> 30,–,–
CN1C(C(=O)Nc2ccccn2)=C(O)c2ccccc2S1(=O)=O [PIROXICAM],–,> 10,AC50 [2]: > 30 µM
CC(C)OC(=O)CCC/C=C\C[C@@H]1[C@@H](/C=C/C(F)(F)COc2ccccc2)[C@H](O)C[C@@H]1O [TAFLUPROST],> 30,–,–
CC(C(=O)O)c1ccc2c(c1)[nH]c1ccc(Cl)cc12 (stereo not drawn) [CARPROFEN],–,> 30,AC50 [2]: > 10 µM
CC(CCc1ccccc1)NCC(O)c1ccc(O)c(C(N)=O)c1 (stereo not drawn) [LABETALOL],> 30,–,–
O=C1CN(/N=C/c2ccc(-c3ccc([N+](=O)[O-])cc3)o2)C(O)=N1 [DANTROLENE],–,–,AC50 [2]: > 10 µM
C[C@]12C=CC(=O)N[C@@H]1CC[C@@H]1[C@@H]2CC[C@]2(C)[C@@H](C(=O)Nc3cc(C(F)(F)F)ccc3C(F)(F)F)CC[C@@H]12 [DUTASTERIDE],–,> 10,AC50 [2]: > 10 µM
CCOC(=O)C1=C[C@@H](OC(CC)CC)[C@H](NC(C)=O)[C@@H](N)C1 [OSELTAMIVIR],> 30,–,–
C[C@@H](Oc1cc(-c2cnn(C3CCNCC3)c2)cnc1N)c1c(Cl)ccc(F)c1Cl [CRIZOTINIB],–,–,AC50 (D(1A) dopamine receptor): > 10 µM; AC50 [3]: > 30 µM
OC[C@H]1O[C@@](CO)(O[C@H]2O[C@H](CO)[C@@H](O)[C@H](O)[C@H]2O)[C@@H](O)[C@@H]1O [SUCROSE],–,> 30,–
Cc1ccccc1C(=O)Nc1ccc(C(=O)N2CCCC(N(C)C)c3ccccc32)cc1 (stereo not drawn) [MOZAVAPTAN],> 30,–,–
CC(C)c1nc(N(C)S(C)(=O)=O)nc(-c2ccc(F)cc2)c1/C=C/[C@@H](O)C[C@@H](O)CC(=O)O [ROSUVASTATIN],–,> 30,–
C=C[C@H]1C[N@@]2CC[C@H]1C[C@@H]2[C@@H](O)c1ccnc2ccc(OC)cc12 [QUINIDINE],–,> 30,AC50 (Progesterone receptor): > 30 µM
CC(C)N(CCC(C(N)=O)(c1ccccc1)c1ccccn1)C(C)C (stereo not drawn) [DISOPYRAMIDE],–,–,AC50 (Progesterone receptor): > 30 µM; AC50 [2]: > 10 µM; AC50 [3]: > 30 µM
CC[C@H]1OC(=O)[C@H](C)C(=O)[C@H](C)[C@@H](O[C@@H]2O[C@H](C)C[C@H](N(C)C)[C@H]2O)[C@](C)(OC)C[C@@H](C)C(=O)[C@H](C)[C@H]2N(CCCCn3cnc(-c4cccnc4)c3)C(=O)O[C@]12C [TELITHROMYCIN],> 30,–,–
N[C@@H](CC(=O)N1CCn2c(nnc2C(F)(F)F)C1)Cc1cc(F)c(F)cc1F [SITAGLIPTIN],–,–,AC50 (D(1A) dopamine receptor): > 10 µM; AC50 (D(4) dopamine receptor): > 10 µM
CC(N)C12CC3CC(CC(C3)C1)C2 (stereo not drawn) [RIMANTADINE],–,> 10,AC50 [2]: > 10 µM
C[C@@H]1C[C@H]2[C@@H]3CCC4=CC(=O)C=C[C@]4(C)[C@@]3(Cl)[C@@H](O)C[C@]2(C)[C@@]1(OC(=O)c1ccco1)C(=O)CCl [MOMETASONE FUROATE],> 30,–,–
CC1=C(/C=C/C(C)=C/C=C/C(C)=C/C(=O)O)C(C)(C)CCC1 [TRETINOIN],> 3,–,–
